Article PMC2970562, “High-Affinity Inhibitors of Human NAD^+-Dependent 15-Hydroxyprostaglandin Dehydrogenase: Mechanisms of Inhibition and Structure-Activity Relationships” (PLoS ONE, 2010)
pIC50, pKi: −log10 of the molar value.

How the values were obtained:
[1] = molecular target: recombinant human placental 15-PGDH; conditions: cited from earlier work; for potency as inhibitor of 15-PGDH: in words ref 22
human 15-PGDH [2] = molecular target: T1, human 15-PGDH (Homo sapiens, UniProt P15428); assay: Substrate (PGE2) and cofactor (NAD+) titrations, mechanism of action, global fitting; format: biochemical; conditions: for Competitive (CM), fit residual Chi^2 value / Mixed-mode (MM), fit residual Chi^2 value / Noncompetitive (NM), fit residual Chi^2 value / Uncompetitive (UM), fit residual Chi^2 value: global fitting; for Titration of NAD^+ K m / Titration of NAD^+ V max [µmol/(min×mg)] / Titration of NAD^+ k cat/K m[×10^6] / Titration of NAD^+ k cat[1/sec]: 30 µM PGE2
T1 construct: comprising residues 3–256 of the human HPGD gene (GenBank identifier: 1203982); His6 (GHHHHHH, behind the TEV site) (C, cleaved yes); made in house; host or cells: E. coli BL21(DE3)-R3
T1 sequence (P15428 3-256): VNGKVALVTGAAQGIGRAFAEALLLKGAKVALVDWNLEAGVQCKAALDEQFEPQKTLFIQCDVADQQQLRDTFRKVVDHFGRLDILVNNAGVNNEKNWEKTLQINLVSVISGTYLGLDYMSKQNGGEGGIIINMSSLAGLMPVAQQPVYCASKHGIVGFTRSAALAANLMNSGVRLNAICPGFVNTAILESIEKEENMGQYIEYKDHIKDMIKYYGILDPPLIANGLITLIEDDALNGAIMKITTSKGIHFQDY
Protocol: Kinetic studies were performed in 100 mM Tris buffer pH 8.0, containing 0.01% Tween-20 and 10 nM 15-PGDH enzyme. […] All inhibitor compounds were dissolved in 10% (v/v) DMSO at varying concentrations from which they were applied at 1∶5 ratio (resulting in a final concentration of 2% (v/v) DMSO in all assays). For each experiment an aliquot of purified enzyme was thawed freshly and pre-diluted to 10 µM in buffer I (5 mM Tris/HCl, pH 8.0, 150 mM NaCl, 0.01% Tween-20). All experiments were performed in white 384-well PCR microplates (Bio-Rad Laboratories, Inc.) in final assay volumes of 20 µL. Twelve-point compound titrations were set up from serially diluted stock solutions in 10% (v/v) DMSO. […] The initial rates recorded in compound titrations were plotted against -log[compound], and non-linear regression (Levenberg-Marquardt) fitting of the dose-response curve to the Hill equation [47] was performed to derive the IC50, using PRISM 5.0 (GraphPad Software, Inc.). For substrate/cofactor titrations, curves with initial rates plotted against the concentration of substrate or cofactor were fitted to the Michaelis-Menten equation, to derive maximal activities, V max, and Michaelis constants, K m. Fitting qualities were judged from the goodness of fit (R^2>0.98).

human 15-PGDH [3] = molecular target: T1, human 15-PGDH; assay: Differential scanning fluorimetry (DSF), thermal stabilization; format: binding
ALDH1A1 = molecular target: T2, ALDH1A1 (Homo sapiens, UniProt P00352); assay: Selectivity screen, aldehyde dehydrogenase 1 (PubChem Assay ID 1030); format: biochemical
T2 sequence (P00352 1-501): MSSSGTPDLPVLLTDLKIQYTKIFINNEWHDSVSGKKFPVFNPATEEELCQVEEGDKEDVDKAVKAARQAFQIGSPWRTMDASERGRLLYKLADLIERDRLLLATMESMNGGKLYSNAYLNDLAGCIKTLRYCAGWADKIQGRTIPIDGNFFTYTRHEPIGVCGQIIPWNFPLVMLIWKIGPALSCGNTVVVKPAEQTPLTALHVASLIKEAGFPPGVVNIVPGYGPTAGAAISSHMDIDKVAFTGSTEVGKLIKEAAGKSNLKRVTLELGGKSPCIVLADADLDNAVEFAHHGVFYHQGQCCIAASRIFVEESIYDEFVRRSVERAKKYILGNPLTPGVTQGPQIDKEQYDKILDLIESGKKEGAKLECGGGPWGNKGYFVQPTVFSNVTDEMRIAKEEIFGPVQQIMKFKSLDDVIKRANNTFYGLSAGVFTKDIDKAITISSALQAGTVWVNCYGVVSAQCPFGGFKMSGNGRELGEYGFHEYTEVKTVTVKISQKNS
Protocol: The list also includes two SDR enzymes, hydroxyacyl dehydrogenase (HADH2, also known as type-10 hydroxysteroid dehydrogenase, HSD17β10; PubChem Assay ID 886) and type-4 hydroxysteroid dehydrogenase (HSD17β4; PubChem Assay ID 893), and a medium-chain dehydrogenase/reductase (MDR), aldehyde dehydrogenase 1 (ALDH1A1; PubChem Assay ID 1030), each of which was tested using a similar experimental protocol to that used for 15-PGDH.

## CCOC(=O)c1ccc(N=Nc2ccc(O)c(CC(=O)O)c2)cc1 [CAY10397]
[1]; human 15-PGDH ref 24
  pKi: 6.96

## CC1(COc2ccc(CC3SC(=O)NC3=O)cc2)CCCCC1 (stereo not drawn) [Ciglitazone]
[1]; recombinant human placental 15-PGDH ref 22
  pIC50: 5.57

## N#Cc1ccccc1CSc1nc2cc(Br)c[nH]c-2n1 [Compound 61]
Human 15-PGDH [2]; NAD^+ titration
  Sum-of-squares F-test p, UM vs. MM: UM vs. MM: p = 0.1058
  Competitive (CM), fit residual Chi^2 value: 0.9507
  Mixed-mode (MM), fit residual Chi^2 value: 0.9841
  Noncompetitive (NM), fit residual Chi^2 value: 0.9834
  Uncompetitive (UM), fit residual Chi^2 value: 0.9837
Human 15-PGDH [2]; PGE2 titration
  Sum-of-squares F-test p, CM vs. MM: CM vs. MM:p = 0.0001
  Competitive (CM), fit residual Chi^2 value: 0.9845
  Mixed-mode (MM), fit residual Chi^2 value: 0.9866
  Noncompetitive (NM), fit residual Chi^2 value: 0.9800
  Uncompetitive (UM), fit residual Chi^2 value: 0.9742
Human 15-PGDH [2]; PGE2 titration, in words
  effect on the V max: almost no effect
Human 15-PGDH [2]; PGE2 titration, inhibitor 50 nM
  increase in the K m: 3 fold
Human 15-PGDH [2]; PGE2 titration, rejection threshold p = 0.05
  Preferred mode of inhibition: MM (MM, mixed-mode inhibition)
Human 15-PGDH [2]; in words
  mode of inhibition with respect to the cofactor NAD+: uncompetitive
  mode of inhibition with respect to the substrate PGE2: competitive inhibition
Human 15-PGDH [2]; inhibitor 10.0 nM
  Titration of PGE2 K m: 7.5 ± 0.5 µM
  Titration of PGE2 V max[µmol/(min×mg)]: 29.0 µmol/min/mg
  Titration of PGE2 k cat/K m[×10^6]: 1.8 ×10^6
  Titration of NAD^+ K m: 17.0 ± 0.8 µM
  Titration of NAD^+ V max [µmol/(min×mg)]: 21.1 µmol/min/mg
  Titration of NAD^+ k cat/K m[×10^6]: 0.6 ×10^6
  Titration of NAD^+ k cat[1/sec]: 10.3 ± 0.1 s⁻¹
Human 15-PGDH [2]; inhibitor 50.0 nM
  Titration of PGE2 K m: 13.5 ± 1.3 µM
  Titration of PGE2 V max[µmol/(min×mg)]: 25.6 µmol/min/mg
  Titration of PGE2 k cat/K m[×10^6]: 0.9 ×10^6
  Titration of PGE2 k cat[1/sec]: 12.4 ± 0.3 s⁻¹
  Titration of NAD^+ K m: 11.1 ± 1.2 µM
  Titration of NAD^+ V max [µmol/(min×mg)]: 10.2 µmol/min/mg
  Titration of NAD^+ k cat/K m[×10^6]: 0.4 ×10^6
  Titration of NAD^+ k cat[1/sec]: 5.0 ± 0.1 s⁻¹
Human 15-PGDH [3]
  ΔTm in the presence of NAD+: 12.2±0.1 °C
  ΔTm in the presence of NADH: 2.9±0.5 °C
Human 15-PGDH [3]; with 200 µM NAD+, 1 µM protein, compound 50 or 250 µM, N/A = no unfolding transition observed in DSF
  ∆Tm [°C] NAD+: 12.2 °C
Human 15-PGDH [3]; with 200 µM NADH, 1 µM protein, compound 50 or 250 µM, N/A = no unfolding transition observed in DSF
  ∆Tm [°C] NADH: 2.9 °C
Human 15-PGDH [3]; without cofactor, 1 µM protein, compound 50 or 250 µM, N/A = no unfolding transition observed in DSF
  ∆Tm [°C] apo: -1.2 °C
ALDH1A1; in words
  response against ALDH1A1: flat response
ALDH1A1; top concentration 57.5 µM, PubChem Assay ID 1030, read-out: IC50/nM ALDH1A1
  IC50: > 57500 nM

## COc1ccc2c(c1)c(CC(=O)O)c(C)n2C(=O)c1ccc(Cl)cc1 [indomethacin]
[1]
  potency as inhibitor of 15-PGDH: micromolar potencies

## O=C(O)c1cccnc1Nc1cccc(C(F)(F)F)c1 [niflumic acid]
[1]
  potency as inhibitor of 15-PGDH: micromolar potencies

## CC1=C(CC(=O)O)c2cc(F)ccc2/C1=C\c1ccc([S+](C)[O-])cc1 (stereo not drawn) [sulindac]
[1]
  potency as inhibitor of 15-PGDH: micromolar potencies
